Measurements from patent US8466088B2, “Herbicidal compositions containing benzoylpyrazole compounds” (Ishihara Sangyo Kaisha, Ltd., priority 2007, dated 2013).
Like-named read-outs stand apart in the source and are kept apart here.

How the values were obtained:
velvetleaf = assay: Example 1: pot test, foliar treatment, visually observed growth inhibition of velvetleaf; assay type: in vivo, Abutilon theophrasti MEDIC.
From the text: (§1) When the herbicidal activity in a case where two active ingredients are combined, is larger than the simple sum of the respective herbicidal activities of the two active ingredients (the expected activity), it is called a synergistic effect. The activity expected by the combination of two active ingredients can be calculated as follows (Colby S. R., “Weed”, vol. 15, p. 20-22, 1967). E=α+β−(α×β+100) where
(§2) α: growth inhibition rate when treated with x (g/ha) of herbicide X,
(§3) β: growth inhibition rate when treated with y (g/ha) of herbicide Y,
(§4) E: growth inhibition rate expected when treated with x (g/ha) of herbicide X and y (g/ha) of herbicide Y.
(§5) That is, when the actual growth inhibition rate (measured value) is larger than the growth inhibition rate by the above calculation (calculated value), the activity by the combination can be regarded as showing a synergistic effect.
(§6) Upland field soil was put into a 1/1,000,000 hectare pot, and seeds of various plants were sown. When the respective plants reached predetermined leaf stage, herbicidal compositions in predetermined amounts were diluted with water in an amount corresponding to 300 L/ha and applied for foliar treatment by a small sprayer.
(§7) Further, in accordance with the above Colby's formula, the growth inhibition rate (calculated value) was calculated. In Tables, with respect to the compound A, Compound Nos. in Table 1 or 3 are described, and with respect to other herbicidal compounds, common names are described.

crabgrass = assay: Example 1: pot test, foliar treatment, visually observed growth inhibition of crabgrass; assay type: in vivo
From the text: as §1, §2, §3, §4, §5, §6, §7

[1] = Digitaria sanguinalis, foliar, read-out: Growth inhibition rate (%) of crabgrass, Measured value
[2] = 3.2 to 4.3 leaf stage, 21st day after application, 125 g/ha

CC(C)N(C(=O)COc1nnc(C(F)(F)F)s1)c1ccc(F)cc1 [Flufenacet]
inhibition at 300 g/ha (velvetleaf; Abutilon theophrasti, foliar, 3.2 to 4.3 leaf stage, 21st day after application, 300 g/ha, read-out: Growth inhibition rate (%) of velvetleaf, Measured value): 0%
inhibition at 150 g/ha (crabgrass; Digitaria sanguinalis, foliar, 3.0 to 4.3 leaf stage, 21st day after application, 150 g/ha, read-out: Growth inhibition rate (%) of crabgrass, Measured value): 0%
inhibition at 300 g/ha (crabgrass; Digitaria sanguinalis, foliar, 3.0 to 4.3 leaf stage, 21st day after application, 300 g/ha, read-out: Growth inhibition rate (%) of crabgrass, Measured value): 5%
inhibition at 300 g/ha (crabgrass; Digitaria sanguinalis, foliar, 3.2 to 4.3 leaf stage, 21st day after application, 300 g/ha, read-out: Growth inhibition rate (%) of crabgrass, Measured value): 10%

O=C(O)CNCP(=O)([O-])O.[K+] [Glyphosate-potassium]
Growth inhibition rate (%) of crabgrass, Measured value (crabgrass; 3.3 to 4.2 leaf stage, 28th day after application, 75 g/ha): 0%

CCOC(=O)C(Cl)Cc1cc(-n2nc(C)n(C(F)F)c2=O)c(F)cc1Cl (centres unmarked) [Carfentrazone-ethyl]
inhibition at 5 g/ha (velvetleaf; Abutilon theophrasti, foliar, read-out: Growth inhibition rate (%) of velvetleaf, Measured value, 2.0 to 2.5 leaf stage, 21st day after application): 98%
inhibition at 2.5 g/ha (velvetleaf; Abutilon theophrasti, foliar, read-out: Growth inhibition rate (%) of velvetleaf, Measured value, 3.2 to 4.3 leaf stage, 21st day after application, 2.5 g/ha): 65%
inhibition at 5 g/ha (velvetleaf; Abutilon theophrasti, foliar, read-out: Growth inhibition rate (%) of velvetleaf, Measured value, 3.3 to 4.3 leaf stage, 20th day after application): 80%
inhibition at 2.5 g/ha (crabgrass; [1]): 0%
inhibition at 5 g/ha (crabgrass; [1]): 0%

CCc1cccc(C)c1N(C(=O)CCl)[C@@H](C)COC [S-Metolachlor, S-metolachlor, reference compound]
Growth inhibition rate (%) of velvetleaf, Measured value (velvetleaf; 2.4 to 3.2 leaf stage, on the 22nd day after application, foliar, active ingredient amount 150 g/ha): 0%
Growth inhibition rate (%) of velvetleaf, Measured value (velvetleaf; 2.5 to 3.3 leaf stage, 21st day after application, 150 g/ha): 0%
Growth inhibition rate (%) of velvetleaf, Measured value (velvetleaf; 2.5 to 3.3 leaf stage, 21st day after application, 300 g/ha): 0%
Growth inhibition rate (%) of velvetleaf, Measured value (velvetleaf; 3.0 to 3.5 leaf stage, 20th day after application, 150 g/ha): 0%
Growth inhibition rate (%) of velvetleaf, Measured value (velvetleaf; 3.0 to 3.5 leaf stage, 21st day after application, 150 g/ha): 0%
Growth inhibition rate (%) of velvetleaf, Measured value (velvetleaf; 3.0 to 3.5 leaf stage, 21st day after application, 300 g/ha): 0%
Growth inhibition rate (%) of velvetleaf, Measured value (velvetleaf; 3.0 to 3.8 leaf stage, 15th day after application, 15 g/ha): 0%
Growth inhibition rate (%) of velvetleaf, Measured value (velvetleaf; 3.2 to 5.0 leaf stage, 14th day after application, 150 g/ha): 0%
Growth inhibition rate (%) of velvetleaf, Measured value (velvetleaf; 3.3 to 4.2 leaf stage, 14th day after application, 150 g/ha): 0%
Growth inhibition rate (%) of velvetleaf, Measured value (velvetleaf; 3.3 to 4.2 leaf stage, 14th day after application, 300 g/ha): 0%
Growth inhibition rate (%) of velvetleaf, Measured value (velvetleaf; 3.5 to 4.3 leaf stage, 21st day after application, 150 g/ha): 0%
Growth inhibition rate (%) of crabgrass, Measured value (crabgrass; 4.0 to 4.5 leaf stage, 21st day after application, 300 g/ha): 8%
Growth inhibition rate (%) of crabgrass, Measured value (crabgrass; 4.0 to 5.0 leaf stage, 21st day after application, 150 g/ha): 0%

COc1nc(C)nc(NC(=O)NS(=O)(=O)c2ccccc2CCC(F)(F)F)n1 [Prosulfuron]
inhibition at 30 g/ha (velvetleaf; Abutilon theophrasti, foliar, 3.0 to 4.0 leaf stage, 21st day after application, read-out: Growth inhibition rate (%) of velvetleaf, Measured value): 95%
inhibition at 15 g/ha (crabgrass; Digitaria sanguinalis, foliar, 3.0 to 4.3 leaf stage, 21st day after application, 15 g/ha, read-out: Growth inhibition rate (%) of crabgrass, Measured value): 0%
inhibition at 30 g/ha (crabgrass; Digitaria sanguinalis, foliar, 3.0 to 4.3 leaf stage, 21st day after application, read-out: Growth inhibition rate (%) of crabgrass, Measured value): 0%
inhibition at 15 g/ha (crabgrass; Digitaria sanguinalis, foliar, 3.2 to 4.1 leaf stage, 14th day after application, 15 g/ha, read-out: Growth inhibition rate (%) of crabgrass, Measured value): 0%
inhibition at 30 g/ha (crabgrass; Digitaria sanguinalis, foliar, 3.2 to 4.1 leaf stage, 14th day after application, read-out: Growth inhibition rate (%) of crabgrass, Measured value): 10%
inhibition at 15 g/ha (crabgrass; Digitaria sanguinalis, foliar, 3.2 to 4.1 leaf stage, 21st day after application, 15 g/ha, read-out: Growth inhibition rate (%) of crabgrass, Measured value): 0%
inhibition at 5 g/ha (crabgrass; Digitaria sanguinalis, foliar, 3.2 to 4.3 leaf stage, 14th day after application, 5 g/ha, read-out: Growth inhibition rate (%) of crabgrass, Measured value): 0%
inhibition at 10 g/ha (crabgrass; Digitaria sanguinalis, foliar, 3.2 to 4.3 leaf stage, 14th day after application, 10 g/ha, read-out: Growth inhibition rate (%) of crabgrass, Measured value): 0%

COCc1c(S(C)(=O)=O)ccc(C(=O)c2cnn(C)c2O)c1C [No. 2-191]
Growth inhibition rate (%) of velvetleaf, Measured value (velvetleaf; 3.5 to 4.3 leaf stage, 21st day after application, 3.5 g/ha): 40%
Growth inhibition rate (%) of crabgrass, Measured value (crabgrass; 3.8 to 4.4 leaf stage, 21st day after application, 3.5 g/ha): 45%

COc1cc(OC)nc(NC(=O)NS(=O)(=O)c2cc(NC=O)ccc2C(=O)N(C)C)n1 [Foramsulfuron]
inhibition at 15 g/ha (velvetleaf; Abutilon theophrasti, foliar, 2.0 to 2.8 leaf stage, 21st day after application, 15 g/ha, read-out: Growth inhibition rate (%) of velvetleaf, Measured value): 0%
inhibition at 30 g/ha (velvetleaf; Abutilon theophrasti, foliar, 2.0 to 2.8 leaf stage, 21st day after application, read-out: Growth inhibition rate (%) of velvetleaf, Measured value): 25%

CCOC(=O)COc1ccc(Cl)cc1Cl [2,4-D-ethyl]
Growth inhibition rate (%) of velvetleaf, Measured value (velvetleaf; 2.4 to 3.2 leaf stage, 22nd day after application, 63 g/ha): 30%
Growth inhibition rate (%) of velvetleaf, Measured value (velvetleaf; [2]): 50%
Growth inhibition rate (%) of crabgrass, Measured value (crabgrass; [2]): 0%
Growth inhibition rate (%) of crabgrass, Measured value (crabgrass; 3.6 to 4.5 leaf stage, 14th day after application, 100 g/ha): 0%
Growth inhibition rate (%) of crabgrass, Measured value (crabgrass; 3.6 to 4.5 leaf stage, 22nd day after application, 200 g/ha): 25%

CCC(CC)Nc1c([N+](=O)[O-])cc(C)c(C)c1[N+](=O)[O-] [Pendimethalin]
inhibition at 200 g/ha (velvetleaf; Abutilon theophrasti, foliar, 3.5 to 4.0 leaf stage, 22nd day after application, 200 g/ha, read-out: Growth inhibition rate (%) of velvetleaf, Measured value): 45%
inhibition at 100 g/ha (crabgrass; Digitaria sanguinalis, foliar, 3.5 to 5.0 leaf stage, 22nd day after application, 100 g/ha, read-out: Growth inhibition rate (%) of crabgrass, Measured value): 30%

CCSC(=O)Oc1c(C(=O)c2ccc(S(C)(=O)=O)c(C(=O)OC)c2C)cnn1C [No. 1, 5-(ethylthio)carbonyloxy-1-methylpyrazol-4-yl 3-(methoxycarbonyl)-2-methyl-4-(methylsulfonyl)phenyl ketone]
inhibition at 15 g/ha (crabgrass; Digitaria sanguinalis, foliar, 3.2 to 4.3 leaf stage, on the 22nd day after application, foliar, active ingredient amount 15 g/ha, read-out: Growth inhibition rate (%) of crabgrass, Measured value): 65%

N.O=C(O)CNCP(=O)(O)O [Glyphosate-ammonium]
Growth inhibition rate (%) of velvetleaf, Measured value (velvetleaf; 2.6 to 3.3 leaf stage, 20th day after application, 63 g/ha): 0%
Growth inhibition rate (%) of velvetleaf, Measured value (velvetleaf; 3.0 to 4.0 leaf stage, 21st day after application, 200 g/ha): 0%
Growth inhibition rate (%) of velvetleaf, Measured value (velvetleaf; 3.2 to 5.0 leaf stage, 14th day after application, 75 g/ha): 0%
Growth inhibition rate (%) of velvetleaf, Measured value (velvetleaf; 3.5 to 4.1 leaf stage, 14th day after application, 100 g/ha): 25%
Growth inhibition rate (%) of velvetleaf, Measured value (velvetleaf; 3.5 to 4.1 leaf stage, 14th day after application, 200 g/ha): 50%
Growth inhibition rate (%) of velvetleaf, Measured value (velvetleaf; 3.5 to 4.1 leaf stage, 20th day after application, 75 g/ha): 0%
Growth inhibition rate (%) of velvetleaf, Measured value (velvetleaf; 3.5 to 4.1 leaf stage, 20th day after application, 150 g/ha): 0%
Growth inhibition rate (%) of velvetleaf, Measured value (velvetleaf; 3.5 to 4.3 leaf stage, 21st day after application, 75 g/ha): 0%

Cn1nc(C(F)(F)F)c(CS(=O)(=O)C2=NOC(C)(C)C2)c1OC(F)F [Pyroxasulfone]
inhibition at 50 g/ha (velvetleaf; Abutilon theophrasti, foliar, 3.5 to 4.0 leaf stage, 14th day after application, 50 g/ha, read-out: Growth inhibition rate (%) of velvetleaf, Measured value): 40%
inhibition at 100 g/ha (velvetleaf; Abutilon theophrasti, foliar, 3.5 to 4.0 leaf stage, 14th day after application, 100 g/ha, read-out: Growth inhibition rate (%) of velvetleaf, Measured value): 50%

CP(=O)(O)CCC(N)C(=O)O (centres unmarked) [Glufosinate-ammonium]
inhibition at 100 g/ha (velvetleaf; Abutilon theophrasti, foliar, read-out: Growth inhibition rate (%) of velvetleaf, Measured value, 3.3 to 4.3 leaf stage, 20th day after application, 100 g/ha): 0%
inhibition at 200 g/ha (velvetleaf; Abutilon theophrasti, foliar, read-out: Growth inhibition rate (%) of velvetleaf, Measured value, 3.3 to 4.3 leaf stage, 20th day after application, 200 g/ha): 10%

CSc1nnc(C(C)(C)C)c(=O)n1N [Metribuzin]
inhibition at 125 g/ha (crabgrass; Digitaria sanguinalis, foliar, 3.2 to 4.2 leaf stage, 21st day after application, 125 g/ha, read-out: Growth inhibition rate (%) of crabgrass, Measured value): 15%
inhibition at 250 g/ha (crabgrass; Digitaria sanguinalis, foliar, 3.2 to 4.2 leaf stage, 21st day after application, 250 g/ha, read-out: Growth inhibition rate (%) of crabgrass, Measured value): 20%

COCC(C)N(C(=O)CCl)c1c(C)csc1C (centres unmarked) [Dimethenamid]
inhibition at 125 g/ha (velvetleaf; Abutilon theophrasti, foliar, 2.0 to 2.5 leaf stage, 21st day after application, 125 g/ha, read-out: Growth inhibition rate (%) of velvetleaf, Measured value): 0%

CCS(=O)(=O)c1cccnc1S(=O)(=O)NC(=O)Nc1nc(OC)cc(OC)n1 [Rimsulfuron]
inhibition at 10 g/ha (velvetleaf; Abutilon theophrasti, foliar, 3.0 to 4.0 leaf stage, 21st day after application, 10 g/ha, read-out: Growth inhibition rate (%) of velvetleaf, Measured value): 75%
inhibition at 20 g/ha (velvetleaf; Abutilon theophrasti, foliar, 3.0 to 4.0 leaf stage, 21st day after application, 20 g/ha, read-out: Growth inhibition rate (%) of velvetleaf, Measured value): 95%
inhibition at 7 g/ha (velvetleaf; Abutilon theophrasti, foliar, 3.2 to 4.3 leaf stage, 21st day after application, 7 g/ha, read-out: Growth inhibition rate (%) of velvetleaf, Measured value): 50%

COc1nc(NC(=O)NS(=O)(=O)c2ccccc2C(F)(F)F)nc(C(F)(F)F)n1 [Tritosulfuron]
Growth inhibition rate (%) of crabgrass, Measured value (crabgrass; 3.2 to 4.2 leaf stage, 21st day after application, 15 g/ha): 0%
